Measured values from ChEMBL document CHEMBL2203254, “Anion inhibition studies of the fastest carbonic anhydrase (CA) known, the extremo-CA from the bacterium Sulfurihydrogenibium azorense” (Bioorg Med Chem Lett, 2012).
Counter-ions that a name gives are not always drawn.

biological target: not listed separately; assay: Inhibition of Sulfurihydrogenibium azorense alpha-carbonic anhydrase preincubated for 15 mins by stopped flow CO2 hydration assay

Compound | Ki [µM]
O=S(=O)(O)ONOS(=O)(=O)O [SODIUM IMINODISULFATE] | 520
S=C(S)S [SODIUM CARBONOTRITHIOATE] | 39
O=[Se](=O)(O)O [SODIUM SELENATE] | 510
O=C([O-])[O-].[Na+].[Na+] [SODIUM CARBONATE] | 7600
CCN(CC)C(=S)S [DITIOCARB SODIUM] | 3
[O-][Cl+3]([O-])([O-])O [SODIUM PERCHLORATE] | > 200000
O=S([O-])O.[Na+] [SODIUM BISULFITE] | 950
[F-].[Na+] [SODIUM FLUORIDE] | 980
N=C=[Se] [SODIUM ISOSELENOCYANATE] | 490
CC(=O)Nc1nnc(S(N)(=O)=O)s1 [ACETAZOLAMIDE] | 0.0009
O=BOB(O)OB(O)OB=O [SODIUM TETRABORATE] | 490
[I-].[Na+] [SODIUM IODIDE] | 870
O=C([O-])O.[Na+] [SODIUM BICARBONATE] | 15700
[Cl-].[Na+] [SODIUM CHLORIDE] | 850
NS(=O)(=O)O [SODIUM SULFAMATE] | 5
S [SODIUM HYDROSULFIDE] | 380
O=P(O)(O)OP(=O)(O)O [SODIUM PYROPHOSPHATE] | 660
N=C=S [SODIUM ISOTHIOCYANATE] | 580
O=[As](O)(O)c1ccccc1 [PHENYLARSONIC ACID SODIUM SALT] | 8
F[B-](F)(F)F.[Na+] [SODIUM TETRAFLUOROBORATE] | > 200000
O=[Te](=O)(O)O [SODIUM TELLURATE] | 410
[N-]=[N+]=[N-] [SODIUM AZIDE] | 340
OB(O)c1ccccc1 [PHENYLBORONIC ACID SODIUM SALT] | 7
O=NO [SODIUM NITRITE] | 580
NS(N)(=O)=O [SULFURIC DIAMIDE SODIUM SALT] | 4
O=S(=O)(O)OOS(=O)(=O)O [SODIUM PERSULFATE] | 32900
O=S(=O)([O-])[O-].[Na+].[Na+] [SODIUM SULFATE ANHYDROUS] | 10000
[Br-].[Na+] [SODIUM BROMIDE] | 940
O=[N+]([O-])[O-].[Na+] [SODIUM NITRATE] | 760

biological target: Carbonic anhydrase 1 (Homo sapiens, UniProt P00915); assay: Inhibition of human cytosolic carbonic anhydrase 1 preincubated for 15 mins by stopped flow CO2 hydration assay
Sequence (P00915 whole entry): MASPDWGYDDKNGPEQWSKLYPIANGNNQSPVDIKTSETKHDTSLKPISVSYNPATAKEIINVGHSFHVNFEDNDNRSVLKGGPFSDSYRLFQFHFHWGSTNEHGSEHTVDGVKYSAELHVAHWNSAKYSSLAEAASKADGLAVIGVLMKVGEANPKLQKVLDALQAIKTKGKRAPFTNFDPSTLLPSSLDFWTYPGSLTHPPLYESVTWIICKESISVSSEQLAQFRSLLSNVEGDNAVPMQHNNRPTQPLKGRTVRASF

Compound | Ki [µM]
O=S(=O)(O)ONOS(=O)(=O)O [SODIUM IMINODISULFATE] | 310
N=C=[Se] [SODIUM ISOSELENOCYANATE] | 85

biological target: Carbonic anhydrase 2 (Homo sapiens, UniProt P00918); assay: Inhibition of human cytosolic carbonic anhydrase 2 preincubated for 15 mins by stopped flow CO2 hydration assay

Compound | Ki [µM]
O=S(=O)(O)ONOS(=O)(=O)O [SODIUM IMINODISULFATE] | 760
